One assay has as its system Diaporthe citri. The assay can be described thus: in vitro-Test with fungal microorganisms, Method A (tables F1-F11). It counts as cell-based. As to the method: (§1) Example: In Vitro-Test with Fungal Microorganisms
(§2) Wells of 96-well microtiter plates are filled with 10 μl of a preparation of test compound or compound combination in methanol+emulsifier alkylaryl-polyglycol-ether. Thereafter, the solvent is evaporated in a hood. At the next step, 100 μl of liquid potato dextrose medium is given into each well, that has been amended with an appropriate concentration of spores or mycelium suspension of the test fungus.
(§3) With the aid of a photometer, the extinction in all wells is measured at the wavelength of 620 nm.
(§4) The microtiter plates are incubated at 20° C. and 85% relative humidity. The inhibition of growth is determined again photometrically 3-5 days after the application. Efficacy is calculated in relation to the untreated control, 0% efficacy means fungal growth as high as in untreated control while 100% efficacy means no fungal growth is measured.
(§5) The data in tables A1 to A12, B1 to B14, C1 to C10, D1 to D8, E1 to E8, F1 to F11, G1 to G4, H1 to H4 and I1 to I5 were collected according to Method A. The data in tables A13 to A22, B15 to B18, C11 to C20, E9 to E16, F12 to F15, G5 to G15, H5 to H8, I6 to I11 and J1 to J11 were collected according to Method B.

For a further assay, the system named is Alternaria alternate. Put plainly: in vitro-Test with fungal microorganisms, Method A (tables A1-A12). Format: cell-based, Alternaria alternata. Conditions: Alternaria, applied alone, read-out: Efficacy %. As for the experimental part: as §1, §2, §3, §4, §5
In a further assay the test system is Botrytis cinerea. Put plainly: in vitro-Test with fungal microorganisms, Method A (tables B1-B14). Conditions: alone. Format: cell-based. As to the method:
as §1, §2, §3, §4, §5

The subject of a further assay is Alternaria alternata. Put plainly: in vitro-Test with fungal microorganisms, Method B (tables A13-A22). Format: cell-based. As for the experimental part: as §1
(§6) Wells of 96-well microtiter plates are filled with 30 μl of a preparation of test compound or compound combination in methanol+emulsifier alkylaryl-polyglycol-ether. Thereafter, the solvent is evaporated in a hood. At the next step, 200 μl of liquid growth medium is given, that has been amended with an appropriate concentration of spores or mycelium suspension of the test fungus.
(§7) With the aid of a photometer, the extinction in all wells is measured at the wavelength of 600 nm.
(§8) The microtiter plates are incubated for 3 to 7 days at 20° C. and 85% relative humidity. After the incubation inhibition of growth is determined photometrically. Efficacy is calculated in relation to the untreated control, 0% efficacy means fungal growth as high as in untreated control while 100% efficacy means no fungal growth is measured.
as §5

The test system of assay [1] is Colletotrichum lindemuthianum. Put plainly: in vitro-Test with fungal microorganisms, Method A (tables D1-D8). It counts as cell-based. As to the method: as §1, §2, §3, §4, §5
For assay [2], the system named is Cercospora beticola. Put plainly: in vitro-Test with fungal microorganisms, Method A (tables C1-C10). It counts as cell-based. As to the method:
as §1, §2, §3, §4, §5

In assay [3] the test system is Cordana musae. The assay can be described thus: in vitro-Test with fungal microorganisms, Method B (tables E9-E16). Format: cell-based. To be noted: single active. As for the experimental part: as §1, §6, §7, §8, §5
The next assay concerns Colletotrichum coccodes. The assay can be described thus: in vitro-Test with fungal microorganisms, Method B (tables J1-J11). Format: cell-based. As for the experimental part:
as §1, §6, §7, §8, §5

The test system of the next assay is Fusarium culmorum. Put plainly: in vitro-Test with fungal microorganisms, Method B (tables G5-G15). Format: cell-based. As for the experimental part: as §1, §6, §7, §8, §5
The test system of assay [4] is Cordana musae. Put plainly: in vitro-Test with fungal microorganisms, Method A (tables E1-E8). It counts as cell-based. Conditions: Neocordana musae, single substance, read-out: Efficacy %. As for the experimental part:
as §1, §2, §3, §4, §5

For assay [5], the system named is Cercospora beticola. Put plainly: in vitro-Test with fungal microorganisms, Method B (tables C11-C20). Format: cell-based. As for the experimental part: as §1, §6, §7, §8, §5
Assay [6] concerns Ustilago segetum var. avenae. Put plainly: in vitro-Test with fungal microorganisms, Method B (tables I6-I11). It counts as cell-based. As for the experimental part: as §1, §6, §7, §8, §5
[7] abbreviates: Fusarium culmorum, alone, read-out: Efficacy.
[8] abbreviates: Fusarium culmorum, single active compound, read-out: Efficacy.
The mark [9] stands for this setting: Cercospora beticola, read-out: Efficacy %.
The mark [10] stands for this setting: Cercospora beticola, single compound, read-out: Efficacy %.
Where [11] appears, read: single active compound at 4 ppm.

Molecules are shown by their SMILES. Values joined by “and” are separate entries in the source; they are usually repeats but may differ in a detail not shown here. Equal entries are not always repeated. Where two headings read alike, the source gives them in different places.

This is an account of results in patent publication US12653191B2, “Active compound combinations” (Bayer Aktiengesellschaft, priority 2020, dated 2026).

On to `OC(Cc1ccccc1Cl)(Cn1nc[nH]c1=S)C1(Cl)CC1` (stereo not drawn) [(1.018) prothioconazole, prothioconazole], for which the inhibition of growth at 0.008 ppm with Diaporthe citri (Diaporthe citri, applied alone, 0.008 ppm, read-out: Efficacy) came to 0%; in the assay on Alternaria alternate (0.008 ppm) it was 20%; in the assay with Botrytis cinerea (Botrytis cinerea, 0.008 ppm, read-out: Efficacy %), 0%; in assay [1] (Colletotrichum lindemuthianum, mixing partner alone, 0.008 ppm, read-out: Efficacy %), 0%; with Cercospora beticola [2] (Cercospora beticola, 0.008 ppm, read-out: Efficacy %), 6%. The inhibition of growth at 0.04 ppm in the assay with Diaporthe citri (Diaporthe citri, applied alone, 0.04 ppm, read-out: Efficacy) amounted to 95%; with Alternaria alternate (0.04 ppm) it was 15%; in the assay on Botrytis cinerea (Botrytis cinerea, 0.04 ppm, read-out: Efficacy %), 48%; in assay [1] (Colletotrichum lindemuthianum, mixing partner alone, 0.04 ppm, read-out: Efficacy %) it was 20%; in the assay with Cercospora beticola [2] (Cercospora beticola, 0.04 ppm alone, read-out: Efficacy %) it was 22%; in the assay with Cercospora beticola [2] (Cercospora beticola, 0.04 ppm, read-out: Efficacy %) it was 38%. Besides, the inhibition of growth at 0.04 ppm in the assay with Cordana musae [4] (0.04 ppm) was found to be 6%. The inhibition of growth at 0.2 ppm amounted to 100% with Diaporthe citri (Diaporthe citri, applied alone, 0.2 ppm, read-out: Efficacy); 94% in the assay on Alternaria alternate (0.2 ppm); 94% in the assay on Botrytis cinerea (Botrytis cinerea, 0.2 ppm, read-out: Efficacy %); 100% in assay [1] (Colletotrichum lindemuthianum, mixing partner alone, 0.2 ppm, read-out: Efficacy %); 100% with Cercospora beticola [2] (Cercospora beticola, 0.2 ppm alone, read-out: Efficacy %); 100% with Cercospora beticola [2] (Cercospora beticola, 0.2 ppm, read-out: Efficacy %). Further, the inhibition of growth at 1 ppm with Diaporthe citri (Diaporthe citri, applied alone, 1.0 ppm, read-out: Efficacy) turned out to be 99%; with Botrytis cinerea (Botrytis cinerea, 1.0 ppm, read-out: Efficacy %) it was 100%; in assay [1] (Colletotrichum lindemuthianum, mixing partner alone, 1.0 ppm, read-out: Efficacy %), 100%; in the assay with Cercospora beticola [2] (Cercospora beticola, 1.0 ppm alone, read-out: Efficacy %), 100%; in the assay with Cercospora beticola [2] (Cercospora beticola, 1.0 ppm, read-out: Efficacy %), 100%; in the assay on Cordana musae [4] (1.0 ppm), 100%. Further, the inhibition of growth at 0.004 ppm was determined as 46% with Alternaria alternata (Alternaria alternata, single compound, 0.004 ppm, read-out: Efficacy); 0% in the assay with Cordana musae [3] (Neocordana musae, 0.004 ppm, read-out: Efficacy); 0% in the assay with Colletotrichum coccodes (Colletotrichum coccodes, single active compound at 0.004 ppm, read-out: Efficacy %); 6% in the assay with Fusarium culmorum (setting [7]); 22% with Fusarium culmorum (setting [8]); 39% with Cercospora beticola [5] (setting [9]). Also, in the assay with Cercospora beticola [5] (setting [10]), the inhibition of growth at 0.004 ppm was found to be 30%. Moreover, the inhibition of growth at 0.02 ppm with Alternaria alternata (Alternaria alternata, single compound, 0.02 ppm, read-out: Efficacy) was determined as 89%; in the assay on Colletotrichum coccodes (Colletotrichum coccodes, single active compound at 0.02 ppm, read-out: Efficacy %) it was 1%; with Fusarium culmorum (setting [7]), 52%; in the assay with Fusarium culmorum (setting [8]), 22%; with Cercospora beticola [5] (Cercospora beticola, single compound, 0.02 ppm, read-out: Efficacy %), 0%. Moreover, the inhibition of growth at 0.1 ppm worked out at 100% in the assay on Alternaria alternata (Alternaria alternata, single compound, 0.1 ppm, read-out: Efficacy); 81% with Cordana musae [3] (Neocordana musae, 0.1 ppm, read-out: Efficacy); 98% with Fusarium culmorum (Fusarium culmorum, 0.1 ppm, alone, read-out: Efficacy); 100% with Cercospora beticola [5] (setting [9]); 15% with Cercospora beticola [5] (setting [10]). Besides, the inhibition of growth at 0.5 ppm in the assay with Alternaria alternata (Alternaria alternata, single compound, 0.5 ppm, read-out: Efficacy) came to 99%; with Cordana musae [3] (Neocordana musae, 0.5 ppm, read-out: Efficacy), 100%; with Colletotrichum coccodes (Colletotrichum coccodes, single active compound at 0.5 ppm, read-out: Efficacy %) it was 100%; in the assay on Cercospora beticola [5] (setting [9]), 100%; in the assay on Cercospora beticola [5] (setting [10]), 0%. Also, in the assay with Cercospora beticola [2] (0.2 ppm alone), the Efficacy % amounted to 98%.
On to `COCC(=O)N(c1c(C)cccc1C)[C@H](C)C(=O)OC` [(12.004) metalaxylm], for which the Efficacy % stood at 8% in assay [6] (0.8 ppm); 3% in [6] (100 ppm); 40% in the assay on Colletotrichum coccodes (single active compound at 0.8 ppm); 24% in the assay on Colletotrichum coccodes (setting [11]); 48% in the assay with Colletotrichum coccodes (single active compound at 20 ppm); 61% with Colletotrichum coccodes (single active compound at 100 ppm).
`Fc1ccc(Oc2ccnc3cc(Cl)cc(Cl)c23)cc1` [(13.005) quinoxifen]: in the assay on Cercospora beticola [5] (single compound, 0.08 ppm), the Efficacy % amounted to 3%.
Regarding `CCO[PH](=O)[O-].CCO[PH](=O)[O-].CCO[PH](=O)[O-].[Al+3]` [(15.012) fosetyl-al], the Efficacy with Cordana musae [3] (0.8 ppm) was 0%.
Regarding `CCO[PH](=O)[O-].CCO[PH](=O)[O-].CCO[PH](=O)[O-].[Al+3]` [(15.012) fosetyl-aluminium, fosetyl-aluminium], the Efficacy is 23% with Diaporthe citri (Table F11, 0.8 ppm alone); 0% with Diaporthe citri (Table F11, 4.0 ppm alone); 0% with Diaporthe citri (Table F11, 20.0 ppm alone); 0% in the assay on Diaporthe citri (Table F11, 100.0 ppm alone); 0% with Diaporthe citri (applied alone, 0.8 ppm); 23% in the assay on Diaporthe citri (applied alone, 4.0 ppm). Also, in the assay with Diaporthe citri (applied alone, 100.0 ppm), the Efficacy is listed as 30%. The Efficacy % is 0% in [1] (mixing partner alone, 4.0 ppm); 8% in assay [1] (mixing partner alone, 20.0 ppm); 70% in assay [1] (mixing partner alone, 100.0 ppm); 0% in [1] (single active at 0.8 ppm); 0% in assay [1] (single active at 4.0 ppm); 39% and 58% in assay [1] (single active at 100.0 ppm).
`CCO[PH](=O)[O-].CCO[PH](=O)[O-].CCO[PH](=O)[O-].[Al+3]` [(15.012) fosetylaluminium]: the figures for the Efficacy % in the assay with Botrytis cinerea (0.8 ppm), in the assay with Botrytis cinerea (4.0 ppm) and in the assay with Botrytis cinerea (100.0 ppm) were 0%, 13% and 1%, respectively.
For the compound `CS(=O)(=O)Oc1cccc(Cl)c1C1CC(c2csc(C3CCN(C(=O)Cn4nc(C(F)F)cc4C(F)F)CC3)n2)=NO1` (stereo not drawn) [(15.043) fluoxapiprolin, fluoxa-piprolin], the Efficacy in the assay with Cordana musae [3] (20 ppm) is listed as 0%; in the assay on Fusarium culmorum (single active compound, 0.8 ppm), 13%; in the assay with Fusarium culmorum (single active compound, 4 ppm), 14%. Moreover, the Efficacy % in the assay with Colletotrichum coccodes (0.8 ppm) is 0%; in the assay on Colletotrichum coccodes (20 ppm), 0%; with Colletotrichum coccodes (setting [11]) it was 0% and 2%; in the assay with Cercospora beticola [5] (single compound, 0.8 ppm) it was 0%; in the assay with Cercospora beticola [5] (single compound, 4 ppm), 3% and 0%; with Cercospora beticola [5] (single compound, 20 ppm) it was 0%.
With `CCO[PH](=O)O` [fosetylal], the Efficacy in the assay with Alternaria alternata (4 ppm) stood at 0%; with Alternaria alternata (20 ppm) it was 4%; with Alternaria alternata (100 ppm), 8%; in the assay with Alternaria alternata (single compound, 0.8 ppm), 0%; with Alternaria alternata (single compound, 4 ppm), 2%; in the assay on Fusarium culmorum (0.8 ppm, alone), 11%.
Take `CCCN(CC)CC1COC2(CCC(C(C)(C)C)CC2)O1` (stereo not drawn) [spiroxamin]: the Efficacy with Alternaria alternata (single compound, 0.8 ppm) is listed as 3%; with Alternaria alternata (single compound, 4 ppm), 15%; in the assay on Alternaria alternata (single compound, 20 ppm), 15%; in the assay on Fusarium culmorum (0.8 ppm, alone) it was 3%.
